Experimental data: publication PMC11540844, “Enhancing transcription–replication conflict targets ecDNA-positive cancers” (Nature, 2024)
“And” between values parts separate entries of the source, which are not always exact repeats. Identical values can stand only once. Like-named read-outs stand apart in the source and are kept apart here.

Assays:
SNU16 xenograft tumours = experiment: SNU16 xenograft tumour model, tumour volume; assay type: in vivo, mice; conditions: for tumour volume, individual mice: Infigratinib 15 mg/kg PO QD
Method: Animal experiments were performed in accordance with protocols approved by the Charles River Accelerator and Development Lab (CRADL) Institutional Animal Care and Use Committee (protocol no. EB17-010-066). Mice were socially housed in individually ventilated cages on a 12/12 h light/dark cycle with temperatures between 65 and 75 °F and 30–50% humidity. The SNU16 gastric cancer cell line was purchased from ATCC (catalogue no. CRL5974) and maintained in Roswell Park Memorial Institute growth medium (Gibco, catalogue no. 22400-089) supplemented with 10% FBS (Omega Scientific, catalogue no. FB-02). To establish tumours, 1 × 10^6 SNU16 cells in 200 µl of a 1:1 mixture of PBS and Matrigel (Corning, catalogue no. 354234) were given by subcutaneous injection into the right flank of 9-week-old female severe combined immunodeficient beige mice (Envigo, strain code 186). Tumour measurements were taken two to three times per week and body weights were taken daily. Tumour volume measurements were obtained using digital calipers and tumour volumes (mm^3) were determined using the formula: tumour volume = (L × W2)/2, where L is the length/largest tumour diameter and W is the width/shortest tumour diameter, with all tumours collected before reaching 1,500 mm^3. Animals (eight mice per group, which historically allowed for significance determination between vehicle and infigratinib) were randomly assigned to unblinded treatment with vehicle, infigratinib (15 mg kg^−^1 oral (PO) once-daily (QD)), BBI-2779 (30 mg kg^−^1 PO every other day (Q2D)) or the combination of BBI-2779 and infigratinib once average tumour volume was 285 (±10)/mean (±s.e.m.) mm^3. One vehicle tumour was taken down on day 22; the mouse was sacrificed due to large tumour volume. Infigratinib was formulated in a 1:1 mixture of sodium acetate buffer, pH 4.6 and polyethylene glycol 300. BBI-2779 was formulated in 0.5% methylcellulose (Sigma-Aldrich, catalogue no. M0512) and 0.2% Tween 80 (AG Scientific, catalogue no. T-2835) in HyPure Molecular Biology Grade Water (HyClone, catalogue no. SH30538.02). […] Animals were sacrificed 6 h, 24 h or 36 h after the last dose, and tumours were collected for western blot or copy number analysis.

[1] = tested on: FGFR2 copy number in SNU16 cells; experiment: qPCR quantification of FGFR2 oncogene number in SNU16 cells; assay type: cell-based, human; conditions: 8.0 weeks of infigratinib
Text: (§1) Nuclear staining is illustrated using DAPI (blue). […] Scale bar represents 10 µm. (b) Timeline of experimental overview. […] Lane 1 (control) is from a non-contiguous portion of the gel from lanes 2 and 3 (infigratinib treated samples).

FGFR2 copy number = FGFR2 copy number by qPCR on xenograft tumour DNA; assay type: in vivo, mice; conditions: infigratinib 15 mg kg-1 PO QD
Method: For copy number analysis, tumours were cut into 10–20 mg pieces and flash-frozen in liquid nitrogen. DNA was extracted using the QIAcube DNA Extraction Kit (Qiagen, no. 51331). Briefly, a mixture of buffer ATL and proteinase K was added to the frozen tumour pieces, and they were set out to equilibrate to room temperature. Tumours were then vortexed for 30 s and placed into an incubator at 56 °C to digest overnight. The next morning, an additional 150 μl of buffer ATL was added and samples vortexed for an additional 30 s to reduce the viscosity of the samples before transfer to the S block. Qiagen protocol for the 96 QIAcube HT was followed for the remainder of the DNA isolation. Purified DNA was quantified for the presence of double-stranded DNA on the QIAxpert (Qiagen, catalogue no. 9002340). The DNA was diluted to 5 ng µl^−^1 (5× working stock) in RNase/DNase free water (Thermo Fisher Scientific, catalogue no. 10977015) and 2 µl was loaded into a 384-well plate. […]

SNU16 cells = experiment: Cell viability (CellTiter-Glo); assay type: cell-based, human; conditions: for 3-day Cell Titer Glo relative signal (Source data Ext Fig 10b): Control SNU16, replicates; for IC50: Homo sapiens
Method: Cell viability assay was performed using CellTiter-Glo (Promega, catalgoue no. G8461) as previously described. Briefly, cells were seeded into a 384-well plate one day before adding inhibitors. Equal volumes of vehicles or drugs diluted at indicated concentration were added into each well the next day, and the cells were incubated for three days. On the third day, after equilibrating plate and CellTiter-Glo reagent at room temperature for 30 min, reagent was added into each well and incubated for 15 min at room temperature. Luminescence was measured using a Synergy 2 microplate reader. Four biological replicates were performed for each condition. Data analysis was performed with GraphPad Prism (v.9.1.0). […]

[2] = tested on: infigratinib-resistant SNU16 cells; experiment: 3-day Cell Titer Glo in SNU16 cells after 8 weeks of infigratinib; assay type: cell-based, human; conditions: for 3-day Cell Titer Glo relative signal (Source data Ext Fig 10b): infi-intermed 8 wk SNU16, replicates
Text: as §1

## CCN1CCN(c2ccc(Nc3cc(N(C)C(=O)Nc4c(Cl)c(OC)cc(OC)c4Cl)ncn3)cc2)CC1 [infigratinib]
SNU16 xenograft tumours; day of study 1
  tumour volume, individual mice: 275.78 mm^3 and 318.63 mm^3 and 234.6 mm^3 and 333.76 mm^3 and 272.35 mm^3 and 399.19 mm^3 and 215.35 mm^3 and 244.48 mm^3
SNU16 xenograft tumours; day of study 5
  tumour volume, individual mice: 207 mm^3 and 207.01 mm^3 and 194.06 mm^3 and 114.59 mm^3 and 223.51 mm^3 and 272.2 mm^3 and 162.32 mm^3 and 141.42 mm^3
SNU16 xenograft tumours; day of study 8
  tumour volume, individual mice: 138.07 mm^3 and 126.44 mm^3 and 146.81 mm^3 and 70.82 mm^3 and 180.25 mm^3 and 231.85 mm^3 and 107.33 mm^3 and 100.66 mm^3
SNU16 xenograft tumours; day of study 11
  tumour volume, individual mice: 156.25 mm^3 and 176.04 mm^3 and 166.7 mm^3 and 123.46 mm^3 and 218.18 mm^3 and 282.27 mm^3 and 116.93 mm^3 and 111.73 mm^3
SNU16 xenograft tumours; day of study 13
  tumour volume, individual mice: 172.17 mm^3 and 176.87 mm^3 and 188.21 mm^3 and 133.63 mm^3 and 270.33 mm^3 and 330.51 mm^3 and 108.35 mm^3 and 124.21 mm^3
SNU16 xenograft tumours; day of study 15
  tumour volume, individual mice: 126.09 mm^3 and 205.17 mm^3 and 263.36 mm^3 and 166 mm^3 and 337.92 mm^3 and 367.94 mm^3 and 166.72 mm^3 and 154.6 mm^3
SNU16 xenograft tumours; day of study 18
  tumour volume, individual mice: 157.95 mm^3 and 204.33 mm^3 and 255.64 mm^3 and 193.27 mm^3 and 380.93 mm^3 and 448.61 mm^3 and 202.33 mm^3 and 176.11 mm^3
SNU16 xenograft tumours; day of study 20
  tumour volume, individual mice: 165.11 mm^3 and 203.59 mm^3 and 221.67 mm^3 and 192.93 mm^3 and 417.82 mm^3 and 479.35 mm^3 and 231.86 mm^3 and 168.05 mm^3
SNU16 xenograft tumours; day of study 22
  tumour volume, individual mice: 223.01 mm^3 and 251.01 mm^3 and 223.64 mm^3 and 246.07 mm^3 and 397.26 mm^3 and 479.73 mm^3 and 254.62 mm^3 and 184.76 mm^3
SNU16 xenograft tumours; day of study 25
  tumour volume, individual mice: 231.38 mm^3 and 244.62 mm^3 and 333.8 mm^3 and 257.4 mm^3 and 426.98 mm^3 and 499.94 mm^3 and 237.29 mm^3 and 196.21 mm^3
SNU16 xenograft tumours; day of study 27
  tumour volume, individual mice: 227.44 mm^3 and 236.39 mm^3 and 325 mm^3 and 271.28 mm^3 and 505.17 mm^3 and 681.55 mm^3 and 273.5 mm^3 and 238.76 mm^3
SNU16 xenograft tumours; infigratinib 15 mg kg^−1 PO QD, day 25, vs vehicle, P < 0.0005
  mean per cent tumour growth inhibition: 97%
[1]
  FGFR2 CN: 332.123
FGFR2 copy number
  FGFR2 copy number by qPCR on tumour DNA, individual tumours: 356.837 and 338.53 and 324.931 and 257.5 and 276.141 and 331.223 and 308.687 and 333.495
SNU16 cells; 0.152416 nM infigratinib
  3-day Cell Titer Glo relative signal (Source data Ext Fig 10b): 1.0456 and 1.0233
SNU16 cells; 0.457247 nM infigratinib
  3-day Cell Titer Glo relative signal (Source data Ext Fig 10b): 0.9513 and 0.976
SNU16 cells; 1.37174 nM infigratinib
  3-day Cell Titer Glo relative signal (Source data Ext Fig 10b): 0.9221 and 0.9386
SNU16 cells; 4.11523 nM infigratinib
  3-day Cell Titer Glo relative signal (Source data Ext Fig 10b): 0.7516 and 0.791
SNU16 cells; 12.3457 nM infigratinib
  3-day Cell Titer Glo relative signal (Source data Ext Fig 10b): 0.4353 and 0.4209
SNU16 cells; 37.037 nM infigratinib
  3-day Cell Titer Glo relative signal (Source data Ext Fig 10b): 0.1753 and 0.1537
SNU16 cells; 111.111 nM infigratinib
  3-day Cell Titer Glo relative signal (Source data Ext Fig 10b): 0.1409 and 0.1325
SNU16 cells; 333.333 nM infigratinib
  3-day Cell Titer Glo relative signal (Source data Ext Fig 10b): 0.1569 and 0.1376
SNU16 cells; 1000 nM infigratinib
  3-day Cell Titer Glo relative signal (Source data Ext Fig 10b): 0.1554 and 0.1292
SNU16 cells; SNU-16, 72 h, control SNU16 cells, 3-day Cell Titer Glo, Extended Data Fig. 10b, read-out: "IC50" control
  IC50: 7.85 nM
SNU16 cells; SNU-16, SNU16 cells, Extended Data Fig. 10, read-out: IC50 (EC50 dose used for 8 weeks of treatment)
  IC50: 25 nM
[2]; Homo sapiens, SNU-16, SNU16 after 8 weeks of infigratinib, 3-day Cell Titer Glo
  IC50: 30.1 nM
[2]; 0.152416 nM infigratinib
  3-day Cell Titer Glo relative signal (Source data Ext Fig 10b): 0.9851 and 1.028
[2]; 0.457247 nM infigratinib
  3-day Cell Titer Glo relative signal (Source data Ext Fig 10b): 1.032 and 1.122
[2]; 1.37174 nM infigratinib
  3-day Cell Titer Glo relative signal (Source data Ext Fig 10b): 1.185 and 1.134
[2]; 4.11523 nM infigratinib
  3-day Cell Titer Glo relative signal (Source data Ext Fig 10b): 1.087 and 1.319
[2]; 12.3457 nM infigratinib
  3-day Cell Titer Glo relative signal (Source data Ext Fig 10b): 1.111 and 1.106
[2]; 37.037 nM infigratinib
  3-day Cell Titer Glo relative signal (Source data Ext Fig 10b): 0.3322 and 0.3782
[2]; 111.111 nM infigratinib
  3-day Cell Titer Glo relative signal (Source data Ext Fig 10b): 0.158 and 0.1671
[2]; 333.333 nM infigratinib
  3-day Cell Titer Glo relative signal (Source data Ext Fig 10b): 0.14 and 0.158
[2]; 1000 nM infigratinib
  3-day Cell Titer Glo relative signal (Source data Ext Fig 10b): 0.1637 and 0.1685
